The values below come from patent US20180327364A1, “MTOR INHIBITORS AND METHODS OF USE THEREOF” (Brandeis University, priority 2015, published 2018).

One data set has as its system TSC2. The experiment in a line: TSC2 level immunoblot in HEK-293T cells. The following applies: 10 μM, 4 h; p=0.19 vs DMSO. Type of data set: cell-based. How it is done: (§1) Quantification of western blots was performed with ImageJ. Cells were lysed in RIPA buffer (1% NP-40, 1% NaDeoxycholate, 0.1% SDS, 10 mM TrisCl, 10 mM β-glycerophosphate, 10 mM Na pyrophosphate, 50 mM NaF, 200 μM Na vanadate, 1 mM EDTA, 500 μM EGTA, 1% benzonase, and supplemented with complete (Roche Diagnostics) protease inhibitors).

The test system of a further data set is SR. The experiment in a line: NCI-60 DTP Human Tumor Cell Line Screen, SR. Type of data set: cell-based. The following applies: 10 μM, 48 h. How it is done: (§2) Screen was conducted as previously described, performed at Developmental Therapeutics Program NCI/NIH.
The subject of another data set is mTOR. The experiment in a line: mTOR level and mTOR phosphorylation immunoblot in HEK-293T cells. The conditions noted are these: 10 μM, 4 h. The data set is classed as cell-based. How it is done:
as §1
Background: Immunoblotting shows a protein as a band on a membrane.

The subject of a further data set is LC3 A/B II. The experiment in a line: LC3 A/B II immunoblot (autophagy) in HEK-293T cells. The following applies: Cbz-B3A 10 μM, rapamycin 20 nM, 4 h. The data set is classed as cell-based. How it is done:
as §1

Another data set deals with BaF3/p210 cells. Description: CellTiter-Glo proliferation, BaF3/p210. The following applies: Mus musculus, 48 h. Type of data set: cell-based. How it is done:
(§3) To determine cellular growth, CellTiter-Glo luminescent cell viability assay (Promega) was used per the manufacturer's instruction. To determine cytotoxicity, LDH release was measured with the LDH Cytotoxicity Assay Kit (Pierce) according to the manufacture's protocol. For 4 h assays, 96 well plates were seeded at 75,000 cells/mL for BaF3/p210 cells or K562 cells. For HEK-293T cells, 10,000 cells/well were plated 24 h before treatment. Cells were treated for 4 h at 37° C. and […] was removed from every well and used in the LDH Cytotoxicity assay per the manufacturer's protocol. For 48 h assays, 7,500 cells/mL of BaF3/p210 or K562 cells were incubated with compound at 37° C. for 48 h (200 μL/well). For HEK-293T cells, 1,000 cells/well were plated 24 h prior to compound treatment. After treatment, 50 μL was removed from each well for the LDH assay for all cell lines and 100 μL of mixed cells were removed and used with the CellTiter-Glo kit for K562 and BaF3/p210 cells. For HEK-293T cells, wells were treated directed with the CellTiter-Glo kit. Cytotoxicity or viability was measured by luminosity and absorbance on a microplate reader.

Data set [1] concerns the target T1, recombinant firefly luciferase (Photinus pyralis, UniProt P08659).
T1 construct: purchased Promega
The experiment in a line: Recombinant luciferase assay. Type of data set: biochemical. The following applies: 100 μM compound, 10 min incubation. How it is done: Stably transduced luciferase HEK-293T cells were plated in 96-well plates 24 h prior to treatment with 100 μM of Cbz-B3A, amine-B3A, acetyl-B3A, and Cbz-acetyl. After 4 h, cells were harvested and measured with Luciferase Assay System with Reporter Lysis Buffer from Promega according to the manufacturer's protocol. Before the addition of luciferin, protein concentration was measured by removing 2 μl of lysate from each well and adding it to diluted Bio-Rad Protein Assay Dye Reagent Concentrate, and the absorbance was measured at OD595. The protein concentration was used to normalize luciferase signal. For translation assays, cells were pretreated for 15 min with 100 μg/mL cycloheximide or 6 μM bortezomib. For the recombinant luciferase assay, Quantilum Recombinant Luciferase (Promega) was diluted 1:250,000 in reporter lysis buffer with 1 mg/mL BSA then mixed 1:1 with 200 μM compound in the same buffer for a final dilution of 1:500,000 and 100 μM compound in 20 μL. This was incubated for 10 min at room temperature then measured with Luciferase Assay System with Reporter Lysis Buffer from Promega according to the manufacturer's protocol.

In a further data set the test system is HEK-293T cells. The experiment in a line: CellTiter-Glo proliferation, HEK-293T. Type of data set: cell-based. The conditions noted are these: Homo sapiens, 48 h. How it is done: as §3
In general terms: ATP-based viability assays read luminescence as a measure of living cells.

Another data set has as its system NCI-60 cell lines. The experiment in a line: NCI-60 DTP Human Tumor Cell Line Screen, all cell lines. Type of data set: cell-based. The following applies: 10 μM, 48 h. How it is done: as §2
Data set [2] relates to K562 cells. The experiment in a line: NCI-60 DTP Human Tumor Cell Line Screen, K562. The data set is classed as cell-based. The conditions noted are these: 48 h, read-out: inhibition of proliferation, K562. How it is done: as §2
For a further data set, the system named is eIF2α. Description: eIF2α phosphorylation immunoblot in HEK-293T cells. Type of data set: cell-based. The conditions noted are these: 1 h; tunicamycin 5 μg/mL, thapsigargin 500 nM; compared with vehicle. How it is done: as §1
The next data set concerns firefly luciferase. Description: Luciferase assay in stably transduced luciferase HEK-293T cells. Type of data set: cell-based. The conditions noted are these: 100 μM Cbz-B3A, 4 h, anti-HA immunoblot.
Data set [3] concerns 4EBP1 phosphorylation by mTORC1. The experiment in a line: 4EBP1 phosphorylation immunoblot in HEK-293T cells. The following applies: 4 h. The data set is classed as cell-based. How it is done:
as §1

Data set [4] deals with p70s6k phosphorylation (mTORC1). The experiment in a line: p70s6k phosphorylation immunoblot in HEK-293T cells. Type of data set: cell-based. How it is done:
as §1

For the next data set, the system named is MOLT-4. The experiment in a line: NCI-60 DTP Human Tumor Cell Line Screen, MOLT-4. Type of data set: cell-based. The following applies: 10 μM, 48 h. How it is done: as §2
Data set [5] deals with K562, BaF3/p210, and HEK-293T cells. The experiment in a line: LDH release cytotoxicity assay. The following applies: 4 and 48 h. The data set is classed as cell-based. How it is done:
as §3
(In general: LDH leaks from cells whose membrane has failed.)

For data set [6], the system named is K562 cells. The experiment in a line: CellTiter-Glo proliferation, K562. The data set is classed as cell-based. The conditions noted are these: Homo sapiens, 48 h. How it is done:
as §3

The test system of a further data set is Rheb. The experiment in a line: Rheb level immunoblot in HEK-293T cells. Type of data set: cell-based. The conditions noted are these: 10 μM, 4 h; p=0.04 vs DMSO. How it is done: as §1

T1 sequence (P08659 whole entry): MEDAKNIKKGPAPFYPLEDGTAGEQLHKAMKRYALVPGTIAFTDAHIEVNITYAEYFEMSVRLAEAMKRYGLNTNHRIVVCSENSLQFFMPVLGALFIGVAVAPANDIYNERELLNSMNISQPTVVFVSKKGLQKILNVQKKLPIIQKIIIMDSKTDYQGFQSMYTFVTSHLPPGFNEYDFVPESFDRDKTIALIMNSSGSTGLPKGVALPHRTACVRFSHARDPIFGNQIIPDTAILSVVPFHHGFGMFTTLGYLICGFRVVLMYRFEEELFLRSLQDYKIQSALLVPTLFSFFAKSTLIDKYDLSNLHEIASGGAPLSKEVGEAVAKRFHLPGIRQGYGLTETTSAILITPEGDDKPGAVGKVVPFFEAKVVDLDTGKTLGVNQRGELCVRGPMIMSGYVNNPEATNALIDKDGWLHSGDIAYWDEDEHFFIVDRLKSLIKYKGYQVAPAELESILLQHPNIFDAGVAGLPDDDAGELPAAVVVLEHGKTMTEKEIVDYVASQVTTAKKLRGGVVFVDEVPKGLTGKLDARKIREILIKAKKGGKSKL

The term EC50 denotes the concentration giving half of the maximal effect. On to `CC(C)(C)OC(=O)/N=C(\NCCC[C@H](NC(=O)OC(C)(C)C)C(=O)NCCCCCCNC(=O)OCc1ccccc1)NC(=O)OC(C)(C)C` [Cbz-B3A], for which, in the data set with TSC2, the “amount of TSC2” value is on record as “appeared to increase the amount of TSC2”. The “decrease in proliferation, SR” value with SR was 83%. Further, the “Ser2481 phosphorylation of mTOR” value with mTOR was “no change in Ser2481 phosphorylation”. Also, the “levels of mTOR” value in the data set with mTOR is given as “did not change”. Further, the “phosphorylation of mTOR at Ser2448” value with mTOR is “only a small effect”. Besides, in the data set with LC3 A/B II, the “LC3 A/B II (autophagy)” value is given as “increased LC3 A/B II to equivalent levels as rapamycin”. Further, the inhibition at 10 µM stood at 68% in the data set with BaF3/p210 cells, 64% in the data set with HEK-293T cells, 39% in the data set on K562 cells [2] and 52% with K562 cells [6]. For the same molecule, the “recombinant firefly luciferase signal (enzymatic activity)” value in [1] was “no reduction of signal”. Besides, in the data set on NCI-60 cell lines, the “average decrease in proliferation, all cell lines” value was 29%. Moreover, the eIF2α phosphorylation result in the data set with eIF2α was “no increase in eIF2α phosphorylation”. For the same molecule, the “decrease in amount of luciferase protein” value with firefly luciferase is listed as “approximately 40%”. In addition, the “4EBP1 phosphorylation (hyper- vs hypo-phosphorylated band)” value in data set [3] (Cbz-B3A 10 μM, Cbz-acetyl 10 μM, rapamycin 20 nM) is on record as “clear shift from hyper-phosphorylation to hypo-phosphorylation”. The EC50 in [3] (Homo sapiens, HEK-293T, read-out: EC50 of inhibition of 4EBP1 phosphorylation) was about 2 µM; in data set [4] (Homo sapiens, HEK-293T, 4 h, read-out: EC50 of inhibition of p70s6k Thr389 phosphorylation) it was about 5 µM. The “p70s6k Ser371 phosphorylation” value in data set [4] (10 μM, 4 h) is on record as “did not inhibit phosphorylation”. The “phosphorylation retained at Thr389 of p70s6k” value in data set [4] (at maximum inhibition) was “approximately 30%”. Moreover, in the data set with MOLT-4, the “decrease in proliferation, MOLT-4” value came out at 80%. Moreover, the “cytotoxicity by release of lactate dehydrogenase” value in data set [5] was “not cytotoxic”. Further, the “amount of Rheb” value with Rheb is on record as “increased the amount of Rheb”.
